Results taken from ChEMBL document CHEMBL5052828, “Therapeutic agents for treating and preventing autoimmune diseases and cancer and a screening method” (2020).
The source made the active and inactive calls. No cut-off for these calls is given here.

What was measured:
Mus musculus [1] = assay: Antiinflammatory activity in C57BL/6 mouse model of collagen-induced arthritis assessed as reduction in clinical score at 0.25 mg, ip; format: functional, organism-based
A549 [2] = assay: Antiproliferative activity against human A549 cells at 20 uM assessed as suppression of cell viability after 4 hrs by CCK-8 assay; format: functional
MDA-MB-231 [3] = assay: Antiproliferative activity against human MDA-MB-231 cells after 4 hrs by CCK-8 assay; format: functional, cell-based; conditions: MDA-MB-231, 4 h
Mus musculus [4] = assay: Antiinflammatory activity in C57BL/6 mouse model of collagen-induced arthritis assessed as reduction in serum IL-6 level at 0.25 mg, ip; format: functional, organism-based
Mus musculus [5] = assay: Protection against imiquimod-induced psoriasis model of BALB/c mouse assessed as reduction in IL-17a mRNA expression at 1 mg treated topically; format: functional, organism-based
LNCaP [6] = assay: Antiproliferative activity against human LNCaP cells at 25 uM assessed as suppression of cell viability after 4 hrs by CCK-8 assay; format: functional
MDA-MB-231 [7] = assay: Antiproliferative activity against human MDA-MB-231 cells at 20 uM assessed as suppression of cell viability after 4 hrs by CCK-8 assay; format: functional
Mus musculus [8] = assay: Protection against imiquimod-induced psoriasis model of BALB/c mouse assessed as reduction in clinical score at 1 mg treated topically; format: functional, organism-based
LNCaP [9] = assay: Antiproliferative activity against human LNCaP cells after 4 hrs by CCK-8 assay; format: functional, cell-based
A549 [10] = assay: Antiproliferative activity against human A549 cells after 4 hrs by CCK-8 assay; format: functional, cell-based; conditions: A549, 4 h
Mus musculus [11] = assay: Protection against imiquimod-induced psoriasis model of BALB/c mouse assessed as reduction in IL-6 mRNA expression at 1 mg treated topically; format: functional, organism-based
HEK293T [12] = assay: Inhibition of Arid5a in human HEK293T cells at 40 uM assessed as inhibition of stabilization of IL-6 on 3'UTR measured by luciferase assay; format: cell-based
Mus musculus [13] = assay: Antiinflammatory activity in C57BL/6 mouse model of collagen-induced arthritis assessed as reduction in frequency of CD4+ IL-17+ cells at 0.25 mg, ip; format: functional, organism-based
HEK293T [14] = assay: Inhibition of Arid5a F56 pocket X mutant in human HEK293T cells at 40 uM assessed as inhibition of stabilization of STAT3 on 3'UTR measured by luciferase assay; format: cell-based
HEK293T [15] = assay: Inhibition of Arid5a L84 pocket X mutant in human HEK293T cells at 40 uM assessed as inhibition of stabilization of IL-6 on 3'UTR measured by luciferase assay; format: cell-based
Mus musculus [16] = assay: Immunosuppressive activity in MOG (35 to 55 residues)/pertussis toxin-induced experimental autoimmune encephalomyelitis female C57BL/6 mouse model assessed as reduction in serum IL-6 level at 0.5 mg, ip; format: functional, organism-based
Mus musculus [17] = assay: Immunosuppressive activity in MOG (35 to 55 residues)/pertussis toxin-induced experimental autoimmune encephalomyelitis female C57BL/6 mouse model assessed as reduction in serum TNF-alpha level at 0.5 mg, ip; format: functional, organism-based
HEK293T [18] = assay: Inhibition of Arid5a F56 pocket X mutant in human HEK293T cells at 40 uM assessed as inhibition of stabilization of IL-6 on 3'UTR measured by luciferase assay; format: cell-based
HEK293T [19] = assay: Inhibition of Arid5a in human HEK293T cells at 10 to 60 uM assessed as inhibition of stabilization of OX40 on 3'UTR measured by luciferase assay; format: cell-based; conditions: dose 10-60 µM
HEK293T [20] = assay: Inhibition of Arid5a Y137 pocket X mutant in human HEK293T cells at 40 uM assessed as inhibition of stabilization of STAT3 on 3'UTR measured by luciferase assay; format: cell-based
Homo sapiens = species: Homo sapiens; assay: Inhibition of human Arid5a binding to (ADE) -like stem loop in the OX40 3'UTR measured by RNA-protein binding assay; conditions: dose 0.5 mg
HEK293T [21] = assay: Inhibition of Arid5a V34 pocket X mutant in human HEK293T cells at 40 uM assessed as inhibition of stabilization of IL-6 on 3'UTR measured by luciferase assay; format: cell-based
HEK293T [22] = assay: Inhibition of Arid5a L84 pocket X mutant in human HEK293T cells at 40 uM assessed as inhibition of stabilization of STAT3 on 3'UTR measured by luciferase assay; format: cell-based
Macrophage [23] = assay: Antiinflammatory activity in LPS-stimulated mouse peritoneal macrophages at 40 uM assessed as decrease in frequency of CD4 + OX40 + T cells in polarized Th17 cells measured by flow cytometry analysis; format: functional, cell-based
Macrophage [24] = assay: Antiinflammatory activity in LPS-stimulated mouse peritoneal macrophages at 40 uM assessed as decrease in IL-6 level measured by ELISA; format: functional, cell-based
HEK293T [25] = assay: Inhibition of Arid5a L84 pocket X mutant in human HEK293T cells at 40 uM assessed as inhibition of stabilization of OX40 on 3'UTR measured by luciferase assay; format: cell-based
HEK293T [26] = assay: Inhibition of Arid5a V34 pocket X mutant in human HEK293T cells at 40 uM assessed as inhibition of stabilization of STAT3 on 3'UTR measured by luciferase assay; format: cell-based
Macrophage [27] = assay: Antiinflammatory activity in LPS-stimulated mouse peritoneal macrophages at 40 uM assessed as decrease in IL-17 level measured by ELISA; format: functional, cell-based
Mus musculus [28] = assay: Immunosuppressive activity in MOG (35 to 55 residues)/pertussis toxin-induced experimental autoimmune encephalomyelitis female C57BL/6 mouse model assessed as reduction in clinical scores at 0.5 mg, ip; format: functional, organism-based
HEK293T [29] = assay: Inhibition of Arid5a V34 pocket X mutant in human HEK293T cells at 40 uM assessed as inhibition of stabilization of OX40 on 3'UTR measured by luciferase assay; format: cell-based
Mus musculus [30] = assay: Immunosuppressive activity in MOG (35 to 55 residues)/pertussis toxin-induced experimental autoimmune encephalomyelitis female C57BL/6 mouse model assessed as reduction in OX40 mRNA expression in CD4 + T cells at 0.5 mg, ip; format: functional, organism-based; conditions: T-cell
Mus musculus [31] = assay: Immunosuppressive activity in MOG (35 to 55 residues)/pertussis toxin-induced experimental autoimmune encephalomyelitis female C57BL/6 mouse model assessed as reduction in frequency of CD4 + OX40 + T cells at 0.5 mg, ip; format: functional, organism-based; conditions: T-cell
Mus musculus [32] = assay: Immunosuppressive activity in MOG (35 to 55 residues)/pertussis toxin-induced experimental autoimmune encephalomyelitis female C57BL/6 mouse model assessed as reduction in IL-17 level in encephalitogenic CD4 + T cells at 0.5 mg, ip; format: functional, organism-based; conditions: T-cell
HEK293T [33] = assay: Inhibition of Arid5a F56 pocket X mutant in human HEK293T cells at 40 uM assessed as inhibition of stabilization of OX40 on 3'UTR measured by luciferase assay; format: cell-based
HEK293T [34] = assay: Inhibition of Arid5a in human HEK293T cells at 10 to 60 uM assessed as inhibition of stabilization of IL-6 on 3'UTR measured by luciferase assay; format: cell-based; conditions: dose 10-60 µM
Macrophage [35] = assay: Antiinflammatory activity in LPS-stimulated mouse peritoneal macrophages at 40 uM assessed as effect on TNF-alpha level measured by ELISA; format: functional, cell-based
HEK293T [36] = assay: Inhibition of Arid5a in human HEK293T cells at 10 to 60 uM assessed as inhibition of stabilization of STAT3 on 3'UTR measured by luciferase assay; format: cell-based; conditions: dose 10-60 µM
HEK293T [37] = assay: Inhibition of Arid5a Y137 pocket X mutant in human HEK293T cells at 40 uM assessed as inhibition of stabilization of OX40 on 3'UTR measured by luciferase assay; format: cell-based
HEK293T [38] = assay: Inhibition of Arid5a Y137 pocket X mutant in human HEK293T cells at 40 uM assessed as inhibition of stabilization of IL-6 on 3'UTR measured by luciferase assay; format: cell-based
Macrophage [39] = assay: Antiinflammatory activity in LPS-stimulated mouse peritoneal macrophages at 40 uM assessed as decrease STAT3 mRNA expression in Th17 cells; format: functional, cell-based

## Cc1nnc(NCC(=O)c2ccccc2)s1
Mus musculus [1]
  Activity: Active
A549 [2]
  Activity: 59%
MDA-MB-231 [3]
  IC50: 27.8 µM
Mus musculus [4]
  Activity: Active
Mus musculus [5]
  Activity: Active
LNCaP [6]
  Activity: 61%
MDA-MB-231 [7]
  Activity: 64%
Mus musculus [8]
  Activity: Active
LNCaP [9]
  IC50: 34.6 µM
A549 [10]
  IC50: 28.4 µM
Mus musculus [11]
  Activity: Active
HEK293T [12]
  inhibition: Active
Mus musculus [13]
  Activity: Active

## Cc1nnc(SCC(=O)c2ccccc2)o1
Mus musculus [1]
  Activity: Active
A549 [2]
  Activity: 59%
MDA-MB-231 [3]
  IC50: 27.8 µM
Mus musculus [4]
  Activity: Active
Mus musculus [5]
  Activity: Active
LNCaP [6]
  Activity: 61%
MDA-MB-231 [7]
  Activity: 64%
Mus musculus [8]
  Activity: Active
LNCaP [9]
  IC50: 34.6 µM
A549 [10]
  IC50: 28.4 µM
Mus musculus [11]
  Activity: Active
HEK293T [12]
  inhibition: Active
Mus musculus [13]
  Activity: Active

## O=C(CSc1nnc(-c2ccncc2)o1)c1ccccc1
Mus musculus [1]
  Activity: Active
HEK293T [14]
  inhibition: inactive
HEK293T [15]
  inhibition: inactive
A549 [2]
  Activity: 59%
Mus musculus [16]
  Activity: Active
MDA-MB-231 [3]
  IC50: 27.8 µM
Mus musculus [17]
  Activity: Active
HEK293T [18]
  inhibition: inactive
HEK293T [19]
  inhibition: Active
HEK293T [20]
  inhibition: inactive
Homo sapiens
  inhibition: Active
Mus musculus [4]
  Activity: Active
Mus musculus [5]
  Activity: Active
LNCaP [6]
  Activity: 61%
HEK293T [21]
  inhibition: inactive
MDA-MB-231 [7]
  Activity: 64%
HEK293T [22]
  inhibition: inactive
Mus musculus [8]
  Activity: Active
Macrophage [23]
  Activity: Active
Macrophage [24]
  Activity: Active
HEK293T [25]
  inhibition: inactive
HEK293T [26]
  inhibition: inactive
Macrophage [27]
  Activity: Active
LNCaP [9]
  IC50: 34.6 µM
Mus musculus [28]
  Activity: Active
HEK293T [29]
  inhibition: inactive
Mus musculus [30]
  Activity: Active
Mus musculus [31]
  Activity: Active
Mus musculus [32]
  Activity: Active
HEK293T [33]
  inhibition: inactive
HEK293T [34]
  inhibition: Active
Macrophage [35]
  Activity: inactive
A549 [10]
  IC50: 28.4 µM
Mus musculus [11]
  Activity: Active
HEK293T [12]
  inhibition: Active
Mus musculus [13]
  Activity: Active
HEK293T [36]
  inhibition: Active
HEK293T [37]
  inhibition: inactive
HEK293T [38]
  inhibition: inactive
Macrophage [39]
  Activity: Active

## CC(=O)CSc1nnc(-c2cccnc2)o1
Mus musculus [1]
  Activity: Active
A549 [2]
  Activity: 59%
MDA-MB-231 [3]
  IC50: 27.8 µM
Mus musculus [4]
  Activity: Active
Mus musculus [5]
  Activity: Active
LNCaP [6]
  Activity: 61%
MDA-MB-231 [7]
  Activity: 64%
Mus musculus [8]
  Activity: Active
LNCaP [9]
  IC50: 34.6 µM
A549 [10]
  IC50: 28.4 µM
Mus musculus [11]
  Activity: Active
HEK293T [12]
  inhibition: Active
Mus musculus [13]
  Activity: Active
